In experiment [1] the target is T1, LHRH receptors (Rattus norvegicus, UniProt P30969).
T1 construct: Pituitary membranes containing LHRH receptors are prepared in batches from quick-frozen rat pituitaries; tissue Hilltop Labs; host or cells: rat pituitary membranes
T1 sequence (P30969 1-327): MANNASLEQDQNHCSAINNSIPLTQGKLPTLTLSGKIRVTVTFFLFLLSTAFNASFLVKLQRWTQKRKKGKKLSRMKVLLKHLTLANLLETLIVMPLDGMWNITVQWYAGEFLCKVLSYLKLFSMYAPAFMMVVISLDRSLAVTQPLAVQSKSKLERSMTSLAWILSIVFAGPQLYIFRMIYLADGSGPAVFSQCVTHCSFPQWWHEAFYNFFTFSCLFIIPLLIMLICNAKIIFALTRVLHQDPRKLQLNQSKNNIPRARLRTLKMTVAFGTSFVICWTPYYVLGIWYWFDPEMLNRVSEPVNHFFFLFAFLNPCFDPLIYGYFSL
The experiment is described as follows: Receptor Binding (radioligand receptor binding assay). The settings on record: rat pituitary membranes, 2 hours at 4° C., read-out: Receptor Binding pkI (converted).

Experiment [2] deals with male castrate rats. Put plainly: In vivo LH Inhibiton. Set-up: species or system rat. The following applies: table 4, 30 ug/kg subcutaneously by bolus injection, AUC of log (LHt /LHi). Here is the method:
(c) In vivo LH Inhibiton. The compound to be tested is administered at 30 ug/kg subcutaneously by bolus injection to male castrate rats and blood samples are collected periodically over 24 hours. The AUC (area under the curve) of the LH suppression data as a function of time is calculated using the formula log (LHt /LHi) wherein LHt is the LH concentration in the blood at time t and LHi is the initial baseline LH concentration in the blood. The AUC values are negative numbers.

The mark [3] stands for this setting: table 3, radioiodinated [D-Leu^6 -des Gly^10 ]-LHRH ethyl amide 50 pM.

Like-named read-outs stand apart in the source and are kept apart here. Numbered stars: 1 amine (or outer) side, 2 acyl side, 3 side chain; on linkers, the order of the positions; unused ones are H or OH. Square brackets hold non-standard residues; d marks the D form. Side chains are listed from the residue outwards. Peptide text beside a SMILES is read from it. * marks the point of attachment. Propanoyl(3-(1-naphthyl)) = O=C(CCc1cccc2ccccc12)*; Propanoyl(3-(4-F-phenyl)) = O=C(CCc1ccc(F)cc1)*; Phe(4-Cl) = N[C@@H](Cc1ccc(Cl)cc1)C(=O)O; d1Nal = N[C@H](Cc1cccc2ccccc12)C(=O)O; Lys(iPr) = CC(C)NCCCC[C@H](N)C(=O)O; NMeY = CN[C@@H](Cc1ccc(O)cc1)C(=O)O; dBta = N[C@H](Cc1csc2ccccc12)C(=O)O; Pyrazinecarbonyl = O=C(c1cnccn1)*; NMeF = CN[C@@H](Cc1ccccc1)C(=O)O; Piperazinyl(4-Me) = CN1CCN(*)CC1; X13 = O=C(CCc1ccc(C(F)(F)F)cc1)*; d3Pal = N[C@H](Cc1cccnc1)C(=O)O; d2Thi = N[C@H](Cc1cccs1)C(=O)O; Nicotinoyl = O=C(c1cccnc1)*; Morpholide = C1CN(*)CCO1; CO = O=C([*:1])[*:2]

As for `CC(C)C[C@H](NC(=O)[C@@H](CCCCNC(=O)N1CCN(C)CC1)NC(=O)[C@H](Cc1ccc(O)cc1)N(C)C(=O)[C@H](CO)NC(=O)[C@@H](Cc1cccc2ccccc12)NC(=O)CCc1ccc(F)cc1)C(=O)N[C@@H](CCCNC(=N)N)C(=O)N1CCC[C@H]1C(=O)N[C@H](C)C(N)=O` [Compound 211, N-(3-(4-Fluorophenyl)propionyl)-D-1-Nal-Ser-NMeTyr-D-Lys(N-epsilon-N'-N"-methylpiperazinecarbonyl)-Leu-Arg-Pro-D-AlaNH2] ({Propanoyl(3-(4-F-phenyl))}-[d1Nal]S[NMeY][dK]([CO-Piperazinyl(4-Me)])LRP[dA]-NH2), the Ki in experiment [1] (table 4, radioligand 50 pM) is 0.0151 nM. For the same compound, in experiment [2], the “AUC (24 hr. after 30 ug/kg)” value is -449. Take “(3-10)[N-(3-(4-Fluorophenyl)propionyl)-D-Trp^3 -NMeTyr^5 -D-Lys^6 (N-epsilon-nicotinyl)-D-Ala^10 ]LHRH [Compound 163]”: the “AUC (24 hr. after 30 ug/kg)” value in experiment [2] is recorded as -361. Take `CC(C)C[C@H](NC(=O)[C@@H](CCCCNC(=O)c1cccnc1)NC(=O)[C@H](Cc1ccc(O)cc1)N(C)C(=O)[C@H](CO)NC(=O)[C@@H](Cc1c[nH]c2ccccc12)NC(=O)CCc1ccc(F)cc1)C(=O)N[C@@H](CCCCNC(C)C)C(=O)N1CCC[C@H]1C(=O)N[C@H](C)C(N)=O` [Compound 195, (3-10)[N-(3-(4-Fluorophenyl)propionyl)-D-Trp^3 -NMeTyr^5 -D-Lys^6 (N-epsilon-nicotinyl)-Lys^8 (N-epsilon-isopropyl)-D-Ala^10]LHRH] ({Propanoyl(3-(4-F-phenyl))}-[dW]S[NMeY][dK](Nicotinoyl)L[Lys(iPr)]P[dA]-NH2): the Ki in experiment [1] (table 4, radioligand 50 pM) is 0.0234 nM. For the same compound, the “AUC (24 hr. after 30 ug/kg)” value in experiment [2] was -158.

In the case of `CC(C)C[C@H](NC(=O)[C@@H](CCCCNC(=O)c1cnccn1)NC(=O)[C@H](Cc1ccc(O)cc1)N(C)C(=O)[C@H](CO)NC(=O)[C@@H](Cc1cccc2ccccc12)NC(=O)CCc1ccc(F)cc1)C(=O)N[C@@H](CCCCNC(C)C)C(=O)N1CCC[C@H]1C(=O)N[C@H](C)C(N)=O` [Compound 207, (3-10)[N-(3-(4-Fluorophenyl)propionyl)-D-1-Nal^3 -NMeTyr^5 -D-Lys^6 (N-epsilon-2-pyrazinyecarbonyl)-Lys^8 (N-epsilon-isopropyl)-D-Ala^10]LHRH] ({Propanoyl(3-(4-F-phenyl))}-[d1Nal]S[NMeY][dK](Pyrazinecarbonyl)L[Lys(iPr)]P[dA]-NH2), the Ki in experiment [1] (table 4, radioligand 50 pM) was 0.00288 nM. Also, the “AUC (24 hr. after 30 ug/kg)” value in experiment [2] is on record as -412.

Consider “(3-10)[N-(3-(4-Fluorophenyl)propionyl)-D-Thia^3 -NMeTyr^5 -D-Lys^6 -D-Ala^ ]LHRH [Compound 166]”, for which, in experiment [2], the “AUC (24 hr. after 30 ug/kg)” value is reported as -208. Turning to `CCNC(=O)[C@@H]1CCCN1C(=O)[C@H](CCCCNC(C)C)NC(=O)[C@H](CC(C)C)NC(=O)[C@@H](CCCCNC(=O)c1cccnc1)NC(=O)[C@H](Cc1ccc(O)cc1)N(C)C(=O)[C@H](CO)NC(=O)[C@@H](Cc1cccc2ccccc12)NC(=O)CCc1ccc(F)cc1` [Compound 209, N-(3-(4-Fluorophenyl)propionyl)-D-1-Nal-Ser-NMeTyr-D-Lys(N-epsilon-nicotinyl)-Leu-Lys(N-epsilon-isopropyl)-Pro-NHEt] ({Propanoyl(3-(4-F-phenyl))}-[d1Nal]S[NMeY][dK](Nicotinoyl)L[Lys(iPr)]P-NHEt), in experiment [1] (table 4, radioligand 50 pM), the Ki was 0.0024 nM. For the same compound, in experiment [2], the “AUC (24 hr. after 30 ug/kg)” value is given as -343. On the same counts, the results for `CC(C)C[C@H](NC(=O)[C@@H](CCCCNC(=O)c1cccnc1)NC(=O)[C@H](Cc1ccc(O)cc1)N(C)C(=O)[C@H](CO)NC(=O)[C@@H](Cc1cccc2ccccc12)NC(=O)CCc1ccc(F)cc1)C(=O)N[C@@H](CCCCNC(C)C)C(=O)N1CCC[C@H]1C(=O)N[C@H](C)C(N)=O` [Compound 197, (3-10)[N-(3-(4-Fluorophenyl)propionyl)-D-1-Nal^3 -NMeTyr^5 -D-Lys^6 (N-epsilon-nicotinyl)-Lys^8 (N-epsilon-isopropyl)-D-Ala^10]LHRH] ({Propanoyl(3-(4-F-phenyl))}-[d1Nal]S[NMeY][dK](Nicotinoyl)L[Lys(iPr)]P[dA]-NH2) are 0.0112 nM and -688. With “(3-10)[N-(3-(4-Fluorophenyl)propionyl)-D-1-Nal^3 -D-Lys^6 (N-epsilon-4-methoxybenzoyl)-Lys^8 (N-epsilon-isopropyl)-D-Ala^10 ]LHRH [Compound 206]”, the “AUC (24 hr. after 30 ug/kg)” value in experiment [2] was -412. In the case of `CC(C)C[C@H](NC(=O)[C@@H](CCCCN)NC(=O)[C@H](Cc1ccc(O)cc1)N(C)C(=O)[C@H](CO)NC(=O)[C@@H](Cc1csc2ccccc12)NC(=O)CCc1ccc(F)cc1)C(=O)N[C@@H](CCCNC(=N)N)C(=O)N1CCC[C@H]1C(=O)N[C@H](C)C(N)=O` [Compound 177, (3-10)[N-(3-(4-Fluorophenyl)propionyl)-D-3-Bal^3 -NMeTyr^5 -D-Lys^6 -D-Ala^10]LHRH] ({Propanoyl(3-(4-F-phenyl))}-[dBta]S[NMeY][dK]LRP[dA]-NH2), the Ki in experiment [1] (table 4, radioligand 50 pM) was 0.00589 nM. For the same compound, the “AUC (24 hr. after 30 ug/kg)” value in experiment [2] is listed as -938. Consider `CC(C)C[C@H](NC(=O)[C@@H](CCCCNC(=O)c1cccnc1)NC(=O)[C@H](CCCCNC(=O)c1cccnc1)NC(=O)[C@H](CO)NC(=O)[C@@H](Cc1cccc2ccccc12)NC(=O)CCc1ccc(F)cc1)C(=O)N[C@@H](CCCNC(=N)N)C(=O)N1CCC[C@H]1C(=O)N[C@H](C)C(N)=O` [Compound 191] ({Propanoyl(3-(4-F-phenyl))}-[d1Nal]SK(Nicotinoyl)[dK](Nicotinoyl)LRP[dA]-NH2), for which, in experiment [1] (table 4, radioligand 50 pM), the Ki is 0.00955 nM.

With `CCNC(=O)[C@@H]1CCCN1C(=O)[C@H](CCCNC(=N)N)NC(=O)[C@H](CC(C)C)NC(=O)[C@@H](Cc1c[nH]c2ccccc12)NC(=O)[C@H](Cc1ccc(O)cc1)NC(=O)[C@H](CO)NC(=O)CCc1ccc(C(F)(F)F)cc1` [Compound 79, (4-9)[N-(3-(4-Trifluoromethylphenyl)propionyl)-Ser^4 -D-Trp^6 -Pro^9 NHEt]LHRH] (X13-SY[dW]LRP-NHEt), in experiment [1] (setting [3]), the Ki was 1.95 nM. On to `CC(C)C[C@H](NC(=O)[C@@H](CCCCN)NC(=O)[C@H](Cc1ccc(O)cc1)N(C)C(=O)[C@H](CO)NC(=O)[C@@H](Cc1cccs1)NC(=O)[C@H](Cc1ccc(Cl)cc1)NC(=O)N1CCOCC1)C(=O)N[C@@H](CCCNC(=N)N)C(=O)N1CCC[C@H]1C(=O)N[C@H](C)C(N)=O` [Compound 230, (2-10)[N-(alpha-Morpholinocarbonyl)-4-Cl-Phe^2 -D-Thia^3 -NMeTyr^5 -D-Lys^6 -D-Ala^10]LHRH] ({Morpholide-CO}-[Phe(4-Cl)][d2Thi]S[NMeY][dK]LRP[dA]-NH2), for which the Ki in experiment [1] (table 4, radioligand 50 pM) was 0.11 nM. The same measure, in the same setting: for `CC(C)C[C@H](NC(=O)[C@@H](CCCCN)NC(=O)[C@H](Cc1ccccc1)N(C)C(=O)[C@H](CO)NC(=O)[C@@H](Cc1cccc2ccccc12)NC(=O)CCc1ccc(F)cc1)C(=O)N[C@@H](CCCNC(=N)N)C(=O)N1CCC[C@H]1C(=O)N[C@H](C)C(N)=O` [Compound 189, (3-10)[N-(3-(4-Fluorophenyl)propionyl)-D-1-Nal^3 -NMePhe^5 -D-Lys^6 -D-Ala^10]LHRH] ({Propanoyl(3-(4-F-phenyl))}-[d1Nal]S[NMeF][dK]LRP[dA]-NH2) the value was 0.0055 nM; for `CC(C)C[C@H](NC(=O)[C@@H](Cc1cccnc1)NC(=O)[C@H](Cc1ccc(O)cc1)N(C)C(=O)[C@H](CO)NC(=O)[C@@H](Cc1cccc2ccccc12)NC(=O)CCc1ccc(F)cc1)C(=O)N[C@@H](CCCNC(=N)N)C(=O)N1CCC[C@H]1C(=O)N[C@H](C)C(N)=O` [Compound 184, (3-10)[N-(3-(4-Fluorophenyl)propionyl)-D-1-Nal^3 -NMeTyr^5 -D-3-Pal^6 -D-Ala^10]LHRH] ({Propanoyl(3-(4-F-phenyl))}-[d1Nal]S[NMeY][d3Pal]LRP[dA]-NH2), 0.00631 nM. For `CCNC(=O)[C@@H]1CCCN1C(=O)[C@H](CCCNC(=N)N)NC(=O)[C@H](CC(C)C)NC(=O)[C@@H](Cc1c[nH]c2ccccc12)NC(=O)[C@H](Cc1ccc(O)cc1)NC(=O)[C@H](CO)NC(=O)[C@H](Cc1c[nH]c2ccccc12)NC(=O)[C@H](Cc1ccc(Cl)cc1)NC(=O)N1CCOCC1` [Compound 112, (2-9)[N-(N-alpha-Morpholinocarbonyl)-4-Cl -Phe^2 -D-Trp^6 -Pro^9 NHEt]LHRH] ({Morpholide-CO}-[Phe(4-Cl)]WSY[dW]LRP-NHEt), the Ki in experiment [1] (setting [3]) is 0.316 nM. On the same count and under the same terms, for `CCNC(=O)[C@@H]1CCCN1C(=O)[C@H](CCCNC(=N)N)NC(=O)[C@H](CC(C)C)NC(=O)[C@@H](Cc1c[nH]c2ccccc12)NC(=O)[C@H](Cc1ccc(O)cc1)NC(=O)[C@H](CO)NC(=O)[C@H](Cc1c[nH]c2ccccc12)NC(=O)[C@H](Cc1ccccc1)NC(=O)N1CCOCC1` [Compound 59, N-alpha-Morpholinocarbonyl-Phe-Trp-Ser-Tyr-D-Trp-Leu-Arg-ProNHET] ({Morpholide-CO}-FWSY[dW]LRP-NHEt) the value was 0.00832 nM; for `CCNC(=O)[C@@H]1CCCN1C(=O)[C@H](CCCNC(=N)N)NC(=O)[C@H](CC(C)C)NC(=O)[C@@H](CCCNC(=N)N)NC(=O)[C@H](Cc1ccc(O)cc1)NC(=O)[C@H](CO)NC(=O)CCc1cccc2ccccc12` [Compound 44, (4-9)[N-(3-(1-Naphthyl)propionyl)-Ser^4 -D-Arg^6 -Pro^9 -NHEt]LHRH] ({Propanoyl(3-(1-naphthyl))}-SY[dR]LRP-NHEt), 3.98 nM.

Source of the values: US5140009A (Tap Pharmaceuticals, Inc., priority 1990, dated 1992).
